40 molecules from patent publication US12612412B2, “Antiviral heterocyclic compounds” (Enanta Pharmaceuticals, Inc., priority 2021, dated 2026) can be followed below.

The structures appear in SMILES notation. Where only a bound is given, the exact number is not on record here.

Usually EC50 stands for the concentration giving half of the maximal effect.

The test system of assay [1] is genotype A, "Long" strain RSV. Description: RSV-A assay (CPE protection in Hep-2 cells, ATPlite readout). The conditions noted are these: human respiratory syncytial virus, RSV-A Long strain, MOI 0.1, CPE protection, read-out: Human RSV-A (“Long”) EC50. Format: cell-based, Human respiratory syncytial virus (HRSV). In outline: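 Compound effect on RSV-induced CPE: Hep-2 monolayers, MOI 0.1, duplicate 2-fold titrations, 5-day culture in 10% FBS DMEM. Readout is ATP-based luminescence, normalised to virus-only and no-virus controls, giving EC50.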
(In general: ATP-based viability assays read luminescence as a measure of living cells.)

The subject of assay [2] is HMPV clinical isolate TN/1501/A1. The experiment in a line: HMPV antiviral assay Method-B (clinical isolate TN/1501/A1 in LLC-MK2 cells, ATP-Lite readout). It counts as cell-based, Human metapneumovirus (HMPV). The note with it: human metapneumovirus, LLC-MK2, 144 h, hMPV WT1501 (clinical isolate TN/1501/A1), 6 days. Summed up: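 EC50 derived by four-parameter logistic fit of percent cell health, measured by ATP-Lite luminescence and normalised to virus-only and uninfected-cell controls. Compounds run in duplicate from 10 μM top, 3-fold, 10 points. Infection: LLC-MK2 cells, MOI 0.014, 2 μg/mL final TPCK-trypsin, serum-free, 6 days at 37° C.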

With `COc1cc(C(=O)NC[C@](O)(c2cc3c(c(-c4cccc(F)c4Cl)n2)OC[C@]3(C)C(N)=O)C(F)(F)F)cc2cc(Br)cnc12` [Example 1121], the EC50 in assay [1] was less than 200 nM; in assay [2] it was less than 500 nM.

`COc1cc(C(=O)NC[C@](O)(c2cc3c(c(-c4cccc(F)c4Cl)n2)OC[C@]3(C)C(N)=O)C2CC2)cc2cn(C3CC3)nc12` [Example 1122]: the EC50 was less than 200 nM in assay [1] and less than 500 nM in assay [2].

In the case of `C[C@]1(C(N)=O)COc2c1cc([C@@](O)(CNC(=O)c1cc(Cl)c3nn(C4CC4)cc3c1)C1CC1)nc2-c1cccc(F)c1Cl` [Example 1123], the EC50 is less than 200 nM in assay [1] and less than 500 nM in assay [2].

For `COc1cc(C(=O)NC[C@](O)(c2cc3c(c(-c4cccc(F)c4Cl)n2)OC[C@]3(C)C(N)=O)C2CC2)cc2cc(Br)cnc12` [Example 1124], the 50% effective concentration (EC50) was less than 200 nM in assay [1] and less than 500 nM in assay [2].

Consider `COc1cc(C(=O)NC[C@](O)(c2cc3c(c(-c4ccc(F)cc4)n2)OC[C@]3(C)C(N)=O)C2CC2)cc2cc(Br)cnc12` [Example 1125], for which the EC50 in assay [1] is less than 200 nM; in assay [2], less than 500 nM.

As for `COc1cc(C(=O)NC[C@](O)(c2cc3c(c(-c4cccc(F)c4Cl)n2)OC[C@]3(C)C(N)=O)C2CC2)cc2cc(Br)c(C)nc12` [Example 1126], the results for the EC50 in assay [1] and in assay [2] were less than 200 nM and less than 500 nM, respectively.

`COc1cc(C(=O)NC[C@](O)(c2cc3c(c(-c4cc(Cl)c(F)cc4F)n2)OC[C@]3(C)C(N)=O)C2(F)CC2)cc2cc(Br)c(C)nc12` [Example 1127]: the EC50 in assay [1] was less than 200 nM; in assay [2], less than 500 nM.

Regarding `COc1cc(C(=O)NC[C@](O)(c2cc3c(c(-c4ccc(F)cc4)n2)OC[C@]3(C)C(N)=O)C2CC2)cc2cc(C(F)F)nnc12` [Example 1128], the EC50 in assay [1] was less than 200 nM; in assay [2], greater than 500 nM.

As for `C[C@]1(C(N)=O)COc2c1cc([C@@](O)(CNC(=O)c1cc(OC3CC3)c3ncc(C#N)cc3c1)C(F)(F)F)nc2-c1ccc(F)cc1` [Example 1133], the concentration for a half-maximal effect (EC50) is less than 200 nM in assay [1] and greater than 500 nM in assay [2].

On to `COc1cc(C(=O)NC[C@](O)(c2cc3c(c(-c4ccc(F)cc4)n2)OC[C@]3(C)C(N)=O)C(F)(F)F)cc2cc(C#N)cnc12` [Example 1134], for which the half-maximal effective concentration (EC50) in assay [1] was less than 200 nM; in assay [2], greater than 500 nM.

Take `COc1cc(C(=O)NC[C@](O)(c2cc3c(c(-c4cc(F)c(F)cc4F)n2)OC[C@]3(C)C(N)=O)C(F)(F)F)cc2cn(C3CC3)nc12` [Example 1135]: the concentration for a half-maximal effect (EC50) in assay [1] was less than 200 nM; in assay [2], less than 500 nM.

`COc1cc(C(=O)NC[C@](O)(c2cc3c(c(-c4cc(F)c(F)cc4F)n2)OC[C@]3(C)C(N)=O)C(F)(F)F)cc2cn(C(F)F)nc12` [Example 1136]: the values for the half-maximal effective concentration (EC50) in assay [1] and in assay [2] were less than 200 nM and less than 500 nM, respectively.

As to `C[C@]1(C(N)=O)COc2c1cc([C@@](O)(CNC(=O)c1ccc3nn(C4CC4)cc3c1)C(F)(F)F)nc2-c1cc(F)c(F)cc1F` [Example 1139], the values for the 50% effective concentration (EC50) in assay [1] and in assay [2] were less than 200 nM and less than 500 nM, respectively.

Regarding `COc1cc(C(=O)NC[C@](O)(c2cc3c(c(-c4cc(F)c(F)cc4F)n2)OC[C@]3(C)C(N)=O)C(F)(F)F)cc2cc(Cl)c(C)nc12` [Example 1140], the EC50 in assay [1] is less than 200 nM; in assay [2], less than 500 nM.

Take `Cc1cnc2c(Cl)cc(C(=O)NC[C@](O)(c3cc4c(c(-c5cc(F)c(F)cc5F)n3)OC[C@]4(C)C(N)=O)C(F)(F)F)cc2c1` [Example 1141]: the EC50 in assay [1] was less than 200 nM; in assay [2] it was less than 500 nM.

For the molecule `Cc1cnc2c(OC(F)F)cc(C(=O)NC[C@](O)(c3cc4c(c(-c5cc(F)c(F)cc5F)n3)OC[C@]4(C)C(N)=O)C(F)(F)F)cc2c1` [Example 1142], the EC50 was less than 200 nM in assay [1] and less than 500 nM in assay [2].

Consider `COc1ncc2cc(C(=O)NC[C@](O)(c3cc4c(c(-c5ccc(F)cc5)n3)OC[C@]4(C)C(N)=O)C(F)(F)F)cc(OC)c2n1` [Example 1143], for which the EC50 in assay [1] is less than 200 nM; in assay [2], greater than 500 nM.

In the case of `COc1ncc2cc(C(=O)NC[C@](O)(c3cc4c(c(-c5ccc(F)cc5)n3)OC[C@]4(C)C(N)=O)C3CC3)cc(OC)c2n1` [Example 1144], the values for the EC50 in assay [1] and in assay [2] were less than 200 nM and greater than 500 nM, respectively.

Take `COc1cc(C(=O)NC[C@](O)(c2cc3c(c(-c4cc(F)c(F)cc4F)n2)OC[C@]3(C)C(N)=O)C2CC2)cc2cn(C3CC3)nc12` [Example 1145]: the EC50 was less than 200 nM in assay [1] and less than 500 nM in assay [2].

For the molecule `COc1cc(C(=O)NC[C@](O)(c2cc3c(c(-c4cc(F)c(F)cc4F)n2)OC[C@]3(C)C(N)=O)C2CC2)cc2cn(C(F)F)nc12` [Example 1146], the values for the EC50 in assay [1] and in assay [2] were less than 200 nM and less than 500 nM, respectively.

Turning to `COc1cc(C(=O)NC[C@](O)(c2cc3c(c(-c4cc(F)c(F)cc4F)n2)OC[C@]3(C)C(N)=O)C2CC2)cc2cn(C3(F)CC3)nc12` [Example 1147], the concentration giving a half-maximal response (EC50) is less than 200 nM in assay [1] and less than 500 nM in assay [2].

`C[C@]1(C(N)=O)COc2c1cc([C@@](O)(CNC(=O)c1cc(Cl)c3nn(C4CC4)cc3c1)C1CC1)nc2-c1cc(F)c(F)cc1F` [Example 1148]: the EC50 in assay [1] is less than 200 nM; in assay [2] it was less than 500 nM.

Turning to `COc1cc(C(=O)NC[C@](O)(c2cc3c(c(-c4cc(F)c(F)cc4F)n2)OC[C@]3(C)C(N)=O)C2CC2)cc2cc(Br)cnc12` [Example 1149], the values for the EC50 in assay [1] and in assay [2] were less than 200 nM and less than 500 nM, respectively.

Consider `COc1cc(C(=O)NC[C@](O)(c2cc3c(c(-c4cc(F)c(F)cc4F)n2)OC[C@]3(C)C(N)=O)C2CC2)cc2cc(Br)c(C)nc12` [Example 1150], for which the results for the EC50 in assay [1] and in assay [2] were less than 200 nM and less than 500 nM, respectively.

In the case of `COc1cc(C(=O)NC[C@](O)(c2cc3c(c(-c4cc(F)c(F)cc4F)n2)OC[C@]3(C)C(N)=O)C2CC2)cc2cc(Cl)c(C)nc12` [Example 1151], the EC50 in assay [1] was less than 200 nM; in assay [2] it was less than 500 nM.

For `Cc1cnc2c(Cl)cc(C(=O)NC[C@](O)(c3cc4c(c(-c5cc(F)c(F)cc5F)n3)OC[C@]4(C)C(N)=O)C3CC3)cc2c1` [Example 1153], the EC50 was less than 200 nM in assay [1] and less than 500 nM in assay [2].

Consider `COc1cc(C(=O)NC[C@](O)(c2cc3c(c(-c4cc(Cl)c(F)cc4F)n2)OC[C@]3(C)C(N)=O)C2CC2)cc2cc(Br)c(C)nc12` [Example 1154], for which the EC50 in assay [1] was less than 200 nM; in assay [2], less than 500 nM.

As for `COc1cc(C(=O)NC[C@](O)(c2cc3c(c(-c4c(F)cc(Cl)cc4F)n2)OC[C@]3(C)C(N)=O)C2CC2)cc2cn(C3CC3)nc12` [Example 1155], the EC50 in assay [1] is less than 200 nM; in assay [2] it was less than 500 nM.

For the molecule `COc1cc(C(=O)NC[C@](O)(c2cc3c(c(-c4c(F)cc(Cl)cc4F)n2)OC[C@]3(C)C(N)=O)C2CC2)cc2cn(C(F)F)nc12` [Example 1156], the EC50 in assay [1] was less than 200 nM; in assay [2], less than 500 nM.

Regarding `COc1cc(C(=O)NC[C@](O)(c2cc3c(c(-c4c(F)cc(Cl)cc4F)n2)OC[C@]3(C)C(N)=O)C2CC2)cc2cn(C3(F)CC3)nc12` [Example 1157], the EC50 in assay [1] is less than 200 nM; in assay [2], less than 500 nM.

Turning to `C[C@]1(C(N)=O)COc2c1cc([C@@](O)(CNC(=O)c1cc(Cl)c3nn(C4CC4)cc3c1)C1CC1)nc2-c1c(F)cc(Cl)cc1F` [Example 1158], the EC50 in assay [1] was less than 200 nM; in assay [2], less than 500 nM.

With `COc1cc(C(=O)NC[C@](O)(c2cc3c(c(-c4c(F)cc(Cl)cc4F)n2)OC[C@]3(C)C(N)=O)C2CC2)cc2cc(Cl)c(C)nc12` [Example 1159], the EC50 was less than 200 nM in assay [1] and less than 500 nM in assay [2].

As for `COc1cc(C(=O)NC[C@](O)(c2nc(-c3ccc(F)c(Cl)c3F)c3c(c2F)[C@@](C)(C(N)=O)CO3)C2CC2)cc2cn(C3CC3)nc12` [Example 1160], the EC50 was less than 200 nM in assay [1] and less than 500 nM in assay [2].

As for `COc1cc(C(=O)NC[C@](O)(c2nc(-c3ccc(F)c(Cl)c3F)c3c(c2F)[C@@](C)(C(N)=O)CO3)C2CC2)cc2cn(C(F)F)nc12` [Example 1161], the EC50 in assay [1] was less than 200 nM; in assay [2] it was less than 500 nM.

Regarding `COc1cc(C(=O)NC[C@](O)(c2nc(-c3cc(Cl)c(F)cc3F)c3c(c2F)[C@@](C)(C(N)=O)CO3)C2CC2)cc2cn(C(F)F)nc12` [Example 1162], the figures for the EC50 in assay [1] and in assay [2] were less than 200 nM and less than 500 nM, respectively.

`COc1cc(C(=O)NC[C@](O)(c2cc3c(c(-c4c(F)ccc(Cl)c4F)n2)OC[C@]3(C)C(N)=O)C2CC2)cc2cn(C3CC3)nc12` [Example 1163]: the values for the EC50 in assay [1] and in assay [2] were less than 200 nM and less than 500 nM, respectively.

Regarding `COc1cc(C(=O)NC[C@](O)(c2cc3c(c(-c4c(F)ccc(Cl)c4F)n2)OC[C@]3(C)C(N)=O)C2CC2)cc2cn(C(F)F)nc12` [Example 1164], the EC50 is less than 200 nM in assay [1] and less than 500 nM in assay [2].

As to `COc1cc(C(=O)NC[C@](O)(c2cc3c(c(-c4c(F)ccc(Cl)c4F)n2)OC[C@]3(C)C(N)=O)C2CC2)cc2cn(C3(F)CC3)nc12` [Example 1165], the EC50 in assay [1] was less than 200 nM; in assay [2] it was less than 500 nM.

Consider `C[C@]1(C(N)=O)COc2c1cc([C@@](O)(CNC(=O)c1cc(Cl)c3nn(C4CC4)cc3c1)C1CC1)nc2-c1c(F)ccc(Cl)c1F` [Example 1166], for which the EC50 was less than 200 nM in assay [1] and less than 500 nM in assay [2].

For `C[C@]1(C(N)=O)COc2c1cc([C@@](O)(CNC(=O)c1ccc3nn(C4CC4)cc3c1)C1CC1)nc2-c1c(F)ccc(Cl)c1F` [Example 1167], the half-maximal effective concentration (EC50) in assay [1] was less than 200 nM; in assay [2] it was less than 500 nM.
